# From patent US20250109127A1, “METHODS OF USE OF PHENOXYPROPYLAMINE COMPOUNDS TO TREAT DEPRESSION” (Minerva Neurosciences, Inc., priority 2013, published 2025)
# “And” between values parts separate entries of the source, which are not always exact repeats. Equal values may be shown once.
# Test system: DOPAC release in the rat prefrontal cortex
# Assay: Microdialysis: DOPAC release in prefrontal cortex after I.P. administration
# Format: in vivo
# Conditions: Citalopram 10 mg/kg I.P.
# Description: The aim of the study was to evaluate, using microdialysis, the effects of an intraperitoneal (I.P.) administration in rats of three different doses of SON-117 on dopamine and its metabolites, serotonin and its metabolite (5-HIAA), and norepinephrine levels in prefrontal cortex.
# Thirty-two adult male Wistar rats were used for the whole study (4 groups of eight animals planned for the study, Table 1).
# Surgery was performed on rats weighing about 300 g at the beginning of the experiments. Rats were anaesthetized with Ketamine (50 mg/kg) & Xylazine (15 mg/kg) by intramuscular administration. The animals were placed in a stereotaxic apparatus in the flat-skull position at a constant setting of −3.3 mm between ear bars and the incisor bar. The animals were treated with a local anesthesic (xylocaine 1%, Astra Zeneca) and an analgesic (Temgesic, from Schering Plough, 0.05 mg/kg, s.c.). A rostrocaudal midline incision was made with a lancet to expose the dorsal skull surface. The “stereotaxic zero” was defined by the Bregma in accordance with Paxinos and Watson's atlas (1986). A hole was drilled in the skull with a drill and the meninges were pierced with a sterile needle to implant a CMA12 guide cannula which later received the dialysis probe.
# Coordinates used for implanting guide cannula in prefrontal cortex from Bregma were anteroposterior 3.7 mm, mediolateral 0.8 mm, and dorsoventral −2 mm (top of the probe was at −5 mm). The guide cannula was fixed to the skull with two stainless steel screws (1.88 mm outside diameter) anchored. An application of dental cement was added. A plastic collar allowed each animal to be tethered to a Swivel assembly of the CMA 120 awake animal system. Following surgery, rats were kept in individual cages and allowed to recover for a minimum of 3-5 days before the experimentation. The rats were handled and put in plastic bowl for 10 min at least every day to habituate the animals to their new environment for the dialysis. An I.P. administration with saline was also performed every day.
# Dialysis probes (CMA12/3 mm, membrane, 20 kD cut-off, Carnegie Medicine, Stockholm, Sweden), were carefully washed before inserting into the guide cannula. The wash was performed with the artificial cerebrospinal fluid (aCSF) medium (NaCl 147 mM, KCl 2.7 mM, CaCl2 1.2 mM, MgCl2 0.85 mM) at room temperature. The dialysis system was then equilibrated at 20° C. at a perfusion rate of 1 μl/min with a Carnegie pump (CMA100). All catheters (FEP tubing, internal volume of 1.2 μl/10 cm, and tubing adaptors) used for microdialysis were treated in the same conditions.
# The probes duly prepared were inserted into the guide cannula and the CMA120 Swivel assembly secured to the animal using a plastic collar. Flow through the dialysis probe with aCSF was maintained at a rate of 1 μl/min during the whole experimentation. The first four fractions (corresponding to 2 hours) were discarded to avoid the effects of parenchymal disturbance and to ensure that an approximate steady-state level was reached. Fractions were then collected over a period of 8.5 h during which time the animals remained quiet. The dialysates were automatically collected with an autosampler (microfraction collector CMA 140, Carnegie Medicin) and stored at −80° C. until analysis. […] Perfusion was then maintained for 7 hours with aCSF. The dialysates (30 μl) were collected into 300 μl vials, transferred into dry ice and then kept frozen (−80° C.) until analysis. Frozen samples were shipped to a partner for analysis. At the end of the microdialysis study, a PBS with colored ink was perfused through the probe in order to visualize the dialyzed area.
# Catecholamine assay: Concentrations of dopamine, DOPAC, HVA, 5-HIAA, 5-HT, and norepinephrin were determined for each sample by HPLC coupled with electrochemical detection.
structure (smiles),measurement,setting,value
"CN(C)CCCC1(c2ccc(F)cc2)OCc2cc(C#N)ccc21 (centres unmarked) [Citalopram, citalopram, reference compound]","DOPAC in dialysate, MEAN",T0-T30 min,92.52 % of respective basal
same,"DOPAC in dialysate, MEAN",T30-T1 h,101.61 % of respective basal
same,"DOPAC in dialysate, individual animals",T30-T1 h,108.24 % of respective basal and 101.84 % of respective basal and 110.81 % of respective basal and 140.94 % of respective basal and 90.86 % of respective basal and 86.64 % of respective basal and 74.29 % of respective basal and 104.04 % of respective basal
same,"DOPAC in dialysate, MEAN",T1 h 30-T2 h,103.07 % of respective basal
same,"DOPAC in dialysate, individual animals",T1 h 30-T2 h,97.22 % of respective basal and 94.96 % of respective basal and 95.81 % of respective basal and 121.29 % of respective basal and 99.84 % of respective basal and 90.48 % of respective basal and 98.93 % of respective basal and 130.18 % of respective basal
same,"DOPAC in dialysate, MEAN",T1 h-T1 h 30,102.71 % of respective basal
same,"DOPAC in dialysate, individual animals",T1 h-T1 h 30,108.8 % of respective basal and 86.27 % of respective basal and 95.17 % of respective basal and 138.08 % of respective basal and 88.43 % of respective basal and 88.97 % of respective basal and 77.44 % of respective basal and 143.24 % of respective basal
same,"DOPAC in dialysate, MEAN",T2 h 30-T3 h,86.26 % of respective basal
same,"DOPAC in dialysate, individual animals",T2 h 30-T3 h,68.83 % of respective basal and 76.04 % of respective basal and 88.98 % of respective basal and 94.72 % of respective basal and 88.97 % of respective basal and 81.12 % of respective basal and 86.11 % of respective basal and 108.52 % of respective basal
same,"DOPAC in dialysate, MEAN",T2 h-T2 h 30,91.70 % of respective basal
same,"DOPAC in dialysate, individual animals",T2 h-T2 h 30,100.58 % of respective basal and 87.15 % of respective basal and 91.10 % of respective basal and 94.66 % of respective basal and 82.72 % of respective basal and 76.32 % of respective basal and 84.28 % of respective basal and 120.05 % of respective basal
same,"DOPAC in dialysate, MEAN",T3 h 30-T4 h,92.94 % of respective basal
same,"DOPAC in dialysate, individual animals",T3 h 30-T4 h,98.62 % of respective basal and 88.8 % of respective basal and 84.72 % of respective basal and 92.54 % of respective basal and 81.68 % of respective basal and 80.31 % of respective basal and 88.84 % of respective basal and 131.20 % of respective basal
same,"DOPAC in dialysate, MEAN",T3 h-T3 h 30,89.35 % of respective basal
same,"DOPAC in dialysate, individual animals",T3 h-T3 h 30,108.36 % of respective basal and 74.94 % of respective basal and 89.42 % of respective basal and 83.63 % of respective basal and 84.95 % of respective basal and 77.32 % of respective basal and 85.84 % of respective basal and 113.17 % of respective basal
same,"DOPAC in dialysate, MEAN",T4 h 30-T5 h,97.96 % of respective basal
same,"DOPAC in dialysate, individual animals",T4 h 30-T5 h,118.57 % of respective basal and 89.81 % of respective basal and 82.60 % of respective basal and 77.02 % of respective basal and 90.64 % of respective basal and 94.78 % of respective basal and 95.64 % of respective basal and 137.22 % of respective basal
same,"DOPAC in dialysate, MEAN",T4 h-T4 h 30,94.89 % of respective basal
same,"DOPAC in dialysate, individual animals",T4 h-T4 h 30,107.03 % of respective basal and 83.51 % of respective basal and 92.76 % of respective basal and 82.75 % of respective basal and 83.92 % of respective basal and 79.63 % of respective basal and 104.47 % of respective basal and 127.87 % of respective basal
same,"DOPAC in dialysate, MEAN",T5 h 30-T6 h,101.76 % of respective basal
same,"DOPAC in dialysate, individual animals",T5 h 30-T6 h,132.77 % of respective basal and 85.32 % of respective basal and 85.38 % of respective basal and 97.98 % of respective basal and 88.27 % of respective basal and 108.01 % of respective basal and 92.66 % of respective basal and 127.03 % of respective basal
same,"DOPAC in dialysate, MEAN",T5 h-T5 h 30,93.03 % of respective basal
same,"DOPAC in dialysate, individual animals",T5 h-T5 h 30,75.53 % of respective basal and 93.40 % of respective basal and 85.99 % of respective basal and 86.97 % of respective basal and 95.22 % of respective basal and 104.27 % of respective basal and 122.75 % of respective basal
same,"DOPAC in dialysate, MEAN",T6 h 30-T7 h,100.53 % of respective basal
same,"DOPAC in dialysate, individual animals",T6 h 30-T7 h,119.00 % of respective basal and 87.46 % of respective basal and 83.16 % of respective basal and 92.30 % of respective basal and 79.40 % of respective basal
same,"DOPAC in dialysate, MEAN",T6 h-T6 h 30,96.87 % of respective basal
same,"DOPAC in dialysate, individual animals",T6 h-T6 h 30,117.46 % of respective basal and 79.52 % of respective basal and 81.29 % of respective basal and 39.89 % of respective basal and 77.98 % of respective basal and 106.17 % of respective basal and 94.72 % of respective basal and 131.51 % of respective basal
same,"DOPAC in dialysate, MEAN",T-30 min-T0 (pre-dose),96.20 % of respective basal
same,"DOPAC in dialysate, MEAN",T-1 h-T-30 min (pre-dose),98.03 % of respective basal
